# Reference: ChEMBL document CHEMBL1649565, “Besifloxacin, a novel fluoroquinolone, has broad-spectrum in vitro activity against aerobic and anaerobic bacteria” (Antimicrob Agents Chemother, 2009)
# Active and inactive are the calls of the source. The rule behind the calls is not given here.
# Tests used:
# [1] = system: Staphylococcus epidermidis
# [2] = system: Staphylococcus epidermidis; remark: listed apart in the source
# [3] = system: Cutibacterium acnes; assay: Antibacterial activity against Propionibacterium acnes assessed as percent susceptible isolates by CLSI M11-A7 method; type: functional
# [4] = system: Prevotella sp.; assay: Antibacterial activity against Prevotella sp. assessed as percent susceptible isolates by CLSI M11-A7 method; type: functional
# [5] = system: Bacteroides fragilis; assay: Antibacterial activity against Bacteroides fragilis assessed as percent susceptible isolates by CLSI M11-A7 method; type: functional
# [6] = system: Bacteroides fragilis; assay: Antibacterial activity against Bacteroides fragilis by CLSI M11-A7 method; type: functional
# [7] = system: Prevotella sp.; assay: Antibacterial activity against Prevotella sp. by CLSI M11-A7 method; type: functional
# [8] = system: Cutibacterium acnes; assay: Antibacterial activity against Propionibacterium acnes by CLSI M11-A7 method; type: functional
# [9] = system: Fusobacterium sp.; assay: Antibacterial activity against Fusobacterium sp. by CLSI M11-A7 method; type: functional
# [10] = system: Clostridium perfringens; assay: Antibacterial activity against Clostridium perfringens by CLSI M11-A7 method; type: functional
# [11] = system: Peptostreptococcus sp.; assay: Antibacterial activity against Peptostreptococcus sp. assessed as percent susceptible isolates by CLSI M11-A7 method; type: functional
# [12] = system: Fusobacterium sp.; assay: Antibacterial activity against Fusobacterium sp. assessed as percent susceptible isolates by CLSI M11-A7 method; type: functional
# [13] = system: Peptostreptococcus sp.; assay: Antibacterial activity against Peptostreptococcus sp. by CLSI M11-A7 method; type: functional
# [14] = system: Staphylococcus epidermidis; assay: Antibacterial activity against non-ciprofloxacin-susceptible and methicillin-susceptible Staphylococcus epidermidis by CLSI M100-S18 method; type: functional
# [15] = system: Staphylococcus saprophyticus; assay: Antibacterial activity against Staphylococcus saprophyticus assessed as percent susceptible isolates by CLSI M100-S18 method; type: functional
# [16] = system: Staphylococcus epidermidis; assay: Antibacterial activity against ciprofloxacin-susceptible and methicillin-resistant Staphylococcus epidermidis assessed as percent susceptible isolates by CLSI M100-S18 method; type: functional
# [17] = system: Staphylococcus lugdunensis; assay: Antibacterial activity against Staphylococcus lugdunensis assessed as percent susceptible isolates by CLSI M100-S18 method; type: functional
# [18] = system: Staphylococcus epidermidis; assay: Antibacterial activity against ciprofloxacin-susceptible and methicillin-resistant Staphylococcus epidermidis by CLSI M100-S18 method; type: functional
# [19] = system: Staphylococcus warneri; assay: Antibacterial activity against Staphylococcus warneri assessed as percent susceptible isolates by CLSI M100-S18 method; type: functional
# [20] = system: Staphylococcus hominis; assay: Antibacterial activity against Staphylococcus hominis assessed as percent susceptible isolates by CLSI M100-S18 method; type: functional
# [21] = system: Staphylococcus saprophyticus; assay: Antibacterial activity against Staphylococcus saprophyticus by CLSI M100-S18 method; type: functional
# [22] = system: Moraxella catarrhalis; assay: Antibacterial activity against Moraxella catarrhalis by CLSI M7-A7 method; type: functional
# [23] = system: Staphylococcus aureus; assay: Antibacterial activity against non-ciprofloxacin-susceptible and methicillin-susceptible Staphylococcus aureus by CLSI M100-S18 method; type: functional
# [24] = system: Staphylococcus lugdunensis; assay: Antibacterial activity against Staphylococcus lugdunensis by CLSI M100-S18 method; type: functional
# [25] = system: Staphylococcus aureus; assay: Antibacterial activity against non-ciprofloxacin-susceptible and methicillin-susceptible Staphylococcus aureus assessed as percent susceptible isolates by CLSI M100-S18 method; type: functional
# [26] = system: Staphylococcus aureus; assay: Antibacterial activity against ciprofloxacin-susceptible and methicillin-resistant Staphylococcus aureus by CLSI M100-S18 method; type: functional
# [27] = system: Staphylococcus haemolyticus; assay: Antibacterial activity against Staphylococcus haemolyticus assessed as percent susceptible isolates by CLSI M100-S18 method; type: functional
# [28] = system: Staphylococcus aureus; assay: Antibacterial activity against ciprofloxacin-susceptible and methicillin-resistant Staphylococcus aureus assessed as percent susceptible isolates by CLSI M100-S18 method; type: functional
# [29] = system: Staphylococcus hominis; assay: Antibacterial activity against Staphylococcus hominis by CLSI M100-S18 method; type: functional
# [30] = system: Staphylococcus epidermidis; assay: Antibacterial activity against non-ciprofloxacin-susceptible and methicillin-susceptible Staphylococcus epidermidis assessed as percent susceptible isolates by CLSI M100-S18 method; type: functional
# [31] = system: Staphylococcus haemolyticus; assay: Antibacterial activity against Staphylococcus haemolyticus by CLSI M100-S18 method; type: functional
# [32] = system: Staphylococcus warneri; assay: Antibacterial activity against Staphylococcus warneri by CLSI M100-S18 method; type: functional
compound,measurement,setting,value
COc1c(N2C[C@@H]3CCCN[C@@H]3C2)c(F)cc2c(=O)c(C(=O)O)cn(C3CC3)c12,MIC90,[1],inactive
same,MIC90,[2],inactive
O=C(O)c1cn(C2CC2)c2cc(N3CCNCC3)c(F)cc2c1=O,MIC90,[1],inactive
same,MIC90,[2],inactive
CCC[C@@H]1C[C@@H](C(=O)N[C@@H]([C@H]2O[C@H](SC)[C@H](O)[C@@H](O)[C@H]2O)[C@H](C)Cl)N(C)C1 [CLINDAMYCIN],Activity,[3],100%
same,Activity,[4],85%
same,Activity,[5],65%
same,MIC50,[6],2 µg/mL
same,MIC90,[6],> 8 µg/mL
same,MIC,[7],≤ 0.03 µg/mL
same,MIC50,[7],≤ 0.03 µg/mL
same,MIC90,[7],> 8 µg/mL
same,MIC50,[8],0.06 µg/mL
same,MIC90,[8],0.12 µg/mL
same,MIC,[9],0.06 µg/mL
same,MIC50,[9],0.06 µg/mL
same,MIC90,[9],2 µg/mL
same,MIC50,[10],2 µg/mL
same,MIC90,[10],4 µg/mL
same,Activity,[11],88.5%
same,Activity,[12],95.2%
same,MIC50,[13],0.25 µg/mL
same,MIC90,[13],> 8 µg/mL
Cc1ncc([N+](=O)[O-])n1CCO [METRONIDAZOLE],Activity,[3],0%
same,Activity,[4],100%
same,Activity,[5],100%
same,MIC,[6],2 µg/mL
same,MIC50,[6],2 µg/mL
same,MIC90,[6],2 µg/mL
same,MIC50,[7],4 µg/mL
same,MIC90,[7],4 µg/mL
same,MIC,[8],> 16 µg/mL
same,MIC50,[8],> 16 µg/mL
same,MIC90,[8],> 16 µg/mL
same,MIC50,[9],0.25 µg/mL
same,MIC90,[9],1 µg/mL
same,MIC50,[10],2 µg/mL
same,MIC90,[10],4 µg/mL
same,Activity,[11],98.1%
same,Activity,[12],100%
same,MIC50,[13],0.5 µg/mL
same,MIC90,[13],1 µg/mL
Cc1onc(-c2ccccc2)c1C(=O)N[C@@H]1C(=O)N2[C@@H]1SC(C)(C)[C@@H]2C(=O)O [OXACILLIN],MIC90,[1],inactive
same,MIC50,[14],1 µg/mL
same,Activity,[15],9.9%
same,Activity,[16],55.6%
same,Activity,[17],60%
same,MIC50,[18],0.12 µg/mL
same,Activity,[19],46%
same,Activity,[20],16%
same,MIC50,[21],0.5 µg/mL
same,MIC90,[21],1 µg/mL
same,MIC50,[22],4 µg/mL
same,MIC90,[22],8 µg/mL
same,MIC50,[23],> 8 µg/mL
same,MIC90,[23],> 8 µg/mL
same,MIC90,[2],inactive
same,MIC50,[24],0.5 µg/mL
same,MIC90,[24],> 8 µg/mL
same,Activity,[25],36.4%
same,MIC50,[26],0.25 µg/mL
same,MIC90,[26],> 8 µg/mL
same,Activity,[27],31.7%
same,Activity,[28],78.9%
same,MIC50,[29],> 8 µg/mL
same,MIC90,[29],> 8 µg/mL
same,Activity,[30],16.7%
same,MIC50,[31],> 8 µg/mL
same,MIC90,[31],> 8 µg/mL
same,MIC50,[32],0.5 µg/mL
same,MIC90,[32],> 8 µg/mL
